Measured values as given in patent US11554105B2, “Combinations of artemisinins, BCL-2 inhibitors, and kinase inhibitors for cancer treatment” (UNIVERSITY OF MARYLAND, BALTIMORE, priority 2018, dated 2023).
pIC50: −log10 of the molar value. Entries after “also recorded” stand apart in the source; their conditions may differ. Where two headings read alike, the source gives them in different places. Marks after values point to notes of the source that are not given here.

How the values were obtained:
[1] = system: mitochondrial superoxide in MOLM14 cells; assay: Mitochondrial superoxide (MitoSOX Red, flow cytometry); type: cell-based, human; conditions: 16 h; for mitochondrial superoxide generation, drug alone: 2.25× approximate 48 h IC50, MitoSox MFI; for effect of the drug on ART-838-induced superoxide: drug combined with ART-838, each at 2.25× approximate 48 h IC50; for effect of the drug on AS-induced superoxide: drug combined with AS, each at 2.25× approximate 48 h IC50
Experimental: FIGS. 4A-4D. Effects of ART-838- and AS-containing drug combinations on MOLM14 growth and superoxide generation. […] CIs were computed as described above. CI<1 indicates synergy, CI=1, additivity, CI>1, antagonism. […] Cells were then loaded with 5 μM MitoSox for 30 min, washed, and analyzed by flow cytometry for MitoSox fluorescence (indicating mitochondrial superoxide) in the FL2 channel. Mean fluorescence intensity (MFI) was normalized to that of vehicle control (0.5% DMSO) with no pretreatment (100%, lower dotted lines). Upper dotted lines show MFI of ART-838- or AS-treated cells. Error bars represent the SEM of three independent experiments.
Cells were pretreated with NAC, Tiron, DFO, or vehicle then treated with AS, ART-838, or vehicle, as described above, then following a 16-hour drug treatment, cells were loaded with 5 μM MitoSOX Red (Invitrogen, Carlsbad, Calif.) for 30 minutes at 37° C. with 5% CO2, then analyzed using the FL2 channel of an Accuri C6 flow cytometer.
As both ART-838 and AS increased mitochondrial superoxide, and many antineoplastic drugs induce ROS generation, mitochondrial superoxide levels of MOLM14 cells treated with each of the above six antileukemic drugs were evaluated, alone and in combination with ART-838 or AS. All six drugs induced mitochondrial superoxide, although to a much lesser extent than did ART-838 (FIG. 4B) or AS (FIG. 4D).

human AML cell lines = assay: In vitro efficacies of artemisinin derivatives against human AML cell lines; type: cell-based
Experimental: (§1) Cell lines were seeded in 96-well tissue culture plates at 10^4 cells per well (myeloid leukemia lines) or 2×10^4 cells per well (lymphoid leukemia lines) in culture medium, followed by addition of drugs at the indicated concentrations. 2-4 wells per plate containing media-only were included for background subtraction. Peripheral wells were filled with sterile water to minimize the effects of evaporation.
A novel trioxane dimer allyloxime-631 (ART631) has been designed to further extend in vivo T1/2 without sacrificing antimalarial activity.

in vivo = conditions: NRG (NOD-Rag1null IL2rgnull), mouse, in vivo, po
Source text: FIG. 24. Concentration-time profile for 2C-ARTs with PK parameters.
FIG. 25A-25C. […] NOD-Rag1^nullIL2rg^null (NRG) mice were transplanted IV with Luc-labelled MV4; 11 cells on d10. […] FIG. 25A) MTD cyclic drug treatment schema.

MOLM14 cells [2] = assay: Combinations of AS, ART-838 or DHA with ABT-199, ABT-263 or ABT-737 (alamarBlue, 48 h); type: cell-based; conditions: Homo sapiens, MOLM-14; for inhibition at 0.037 µM: MOLM14
Experimental: FIG. 12. […] Then cytotoxicity was evaluated by alamarBlue assays. Each experiment was performed in triplicate.
MOLM14 or KOPN8 cells were seeded in 96-well plates as described above for alamarBlue assays. […] AlamarBlue assays were performed as described above. Each set of drugs or drug combinations was tested in triplicate. Chou-Talalay drug combination analysis was performed as above.

[3] = system: MOLM14, KOPN8 and RCH-ACV cell lines; assay: Kinase inhibitor drug combination screen, summary over the three cell lines; conditions: for No. Cell Lines synergistically inhibited by drug 1 combined with AS and/or ART-838: >10% growth inhibition over the Bliss prediction, of three cell lines; for synergy with either AS or ART-838: growth inhibition of human leukemia cell lines
Experimental: Plates (3×384-well per set) contained 7 graded concentrations of each drug at 2× final concentration in culture media in 25 μl/well. […] Cells were plated such that each well contained 2500 cells (MOLM14) or 5000 cells (KOPN8 and RCH-ACV). […] Each plate contained two positive control wells used for background subtraction. Each plate also contained 45 wells without any drug. The background-subtracted absorbance for each well was normalized to the average of the no-drug wells from the corresponding vehicle plate.
Hits were ranked by the observed inhibition over the Bliss independence prediction.
Combinations with positive values for this Bliss difference were considered synergistic, values near zero, additive, and negative values, antagonistic.

[4] = system: MOLM14-luc AML xenografts; assay: Subcutaneous MOLM14-luc xenograft growth, ARA with ART-838; type: in vivo, NSG mice; conditions: tumor size on day 24; Ara-C 40 mg/kg/d i.p., ART-838 200 mg/kg/d p.o.
Experimental: Ara-C (40 mg/kg/d) was given i.p. on day 17, 18, 19, 20, 21 and 24. […] Mouse tumors were measured on the indicated days.
Highly immunodeficient NSG mice, obtained originally from Jackson Laboratory (Bar Harbor, Me.), were bred and housed in the UMSOM animal facilities, and handled in a laminar flow hood under aseptic conditions. […] For the human AML xenograft model, 6-12-week-old male NSG mice (>20 g) were transplanted sc with MOLM14-luc cells on day 0 and drug-treated via oral gavage, as specified in legend. Mice were monitored daily and euthanized when tumors reached an estimated mass of 2000 mg (using the formula: [length×width2]/2, assuming density=1 mg/mm3) [64].
Palpable tumors (approximately 100 mg tumor mass) appeared in mice about 2 weeks after transplantation. Mouse tumors were measured with calipers on the indicated days.

MOLM14 cells [5] = assay: alamarBlue cytotoxicity assay, single drugs, 48 h; type: cell-based; conditions: Homo sapiens, MOLM-14, MOLM14, 48 h, means of at least three experiments
Experimental: Cytotoxicity was assessed using alamarBlue assays (Life Technologies, Grand Island, N.Y.; used for IC50 determinations and all drug combinations except the drug combination screen (method described separately below)) or Trypan Blue dye exclusion (Life Technologies, Grand Island, N.Y.; used for experiments using inhibitors that could interfere with alamarBlue assay performance (NAC, Tiron, DFO)).
as §1
Results were normalized to cells treated with vehicle (0.5% DMSO) alone. IC50s were calculated using CompuSyn software and represent the means of at least three experiments performed in triplicate.

MOLM14 cells [6] = assay: Chou-Talalay drug combination analysis (alamarBlue) of AS or ART-838 with antileukemic drugs; type: cell-based, human; conditions: simultaneous 48 h, each drug at 2.25× single-drug IC50, CI<1 synergy, =1 additivity, >1 antagonism
Experimental: For each two-drug pair, dose-response curves were generated for each drug individually and for the two drugs combined. […] This design is based on the recommendation of Chou that combination experiments be performed with drugs combined in an equipotent ratio based on their respective single-drug IC50 values. Following a 48-hour incubation with each drug or drug pair, cytotoxicity assays were performed using alamarBlue as described above.
Each set of drug combinations was tested in at least three independent experiments, each in triplicate.
Sequences are depicted at the bottom of FIG. 5.

[7] = system: acute leukemia xenografts; assay: Acute leukemia xenografts treated with ART838 two-drug combinations; type: in vivo; conditions: compared to vehicle or single drugs
Source text: (§2) To add to the efficacy of this ART838 plus ABT199 treatment regimen, rational addition of a third low-toxicity active antileukemic agent was investigated.

MOLM14 AML xenografts = assay: Subcutaneous MOLM14 xenograft growth, SOR with AS; type: in vivo, NSG mice; conditions: tumor size on day 24; drugs p.o.
Experimental: FIG. 15. AS enhanced in vivo efficacy of Sorafenib (SOR) against acute leukemia xenografts in NSG mice. […] Drug or vehicle were given p.o. on day 3-7, 17-21, and 31-35 when possible. Mouse tumors were measured on the indicated days.
The NSG mice were obtained, maintained and handled as described in the paragraph immediately above. AS was also formulated in Tween 80:ethanol (7:3, v:v) and diluted 1:10 in filtered deionized water immediately before administration. For the human AML xenograft model, 6-12-week-old male NSG mice (>20 g) were transplanted sc with MOLM14 cells on day 0 and drug-treated via oral gavage, as specified in legend. Mice were monitored daily and euthanized when tumors reached an estimated mass of 2000 mg as described in the paragraph immediately above.
Palpable tumors appeared about 2 weeks after transplantation.

MCL1 = assay: Western blot of MCL1 protein levels; type: cell-based, human; conditions: acute leukemia / AML cell lines
Experimental: FIG. 22. ART631 increased ROS and CHOP levels, and reduced MCL1 protein levels. A) MOLM14 AML cells were pre-loaded with 5 mM ROS detection reagent CM-H2DCFDA for 30 m, pretreated with 11 mM for DFO for 60 m, then cultured with 200 nM ART631 or vehicle (DMSO) for 18 h and analyzed by flow cytometry. […] Protein was Western blotted as in FIG. 21. MCL1 protein levels were decreased and CHOP protein levels increased. C) From MOLM14 AML cells cultured as above, total RNA was isolated, cDNA synthesized, and SYBR Green qRT-PCR performed in triplicates. Ct values were normalized to housekeeping gene GAPDH and fold-change computed relative to vehicle control. DDIT3 mRNA (encoding CHOP protein) was increased. MV4; 11 AML and ML2 AML cell lines were tested with similar results.
as §2
Many acute myeloid leukemia (AML) cell lines express MCL1±BCL2 (FIG. 21). As with other ARTs, ART631 elevates AML cellular ROS (FIG. 22A), which is reduced by the iron chelator desferrioxamine (DFO). […] Culture of AML cells with ARTs increased CHOP protein and DDIT3 mRNA (encodes CHOP) levels (FIG. 22C).

## C[C@H]1[C@H](OC(=O)CCC(=O)O)O[C@@H]2O[C@@]3(C)CC[C@H]4[C@H](C)CC[C@@H]1[C@@]24OO3 [AS, artesunate]
[1]
  mitochondrial superoxide generation, drug alone: induced mitochondrial superoxide generation
Human AML cell lines; median over the human AML cell lines tested (11 for AS and ART838, 4 for ART631), read-out: IC50 median
  pIC50: 5.76
Human AML cell lines; range over the human AML cell lines tested (11 for AS and ART838, 4 for ART631), read-out: IC50 range
  pIC50: 5.20 to 6.10
In vivo
  MTD at 5 d: 200 mg/kg/day
MOLM14 cells [2]; MOLM14 (AML) cell line
  pIC50: 6.08

## O=C(Nc1cccc(C(F)(F)F)c1)Nc1cc(S(=O)(=O)NC2CC2)ccc1-c1ccsc1 [AGI6780]
[3]
  No. Cell Lines synergistically inhibited by drug 1 combined with AS and/or ART-838: 2/3**

## CC1(C)CCC(CN2CCN(c3ccc(C(=O)NS(=O)(=O)c4ccc(NCC5CCOCC5)c([N+](=O)[O-])c4)c(Oc4cnc5[nH]ccc5c4)c3)CC2)=C(c2ccc(Cl)cc2)C1 [ABT-199, venetoclax]
MOLM14 cells [2]; 37 nM ABT-199 + 25 nM ART-838, read-out: growth inhibition, ABT-199 together with ART-838
  inhibition at 0.037 µM: 100%
MOLM14 cells [2]; 37 nM ABT-199 + 825 nM AS, read-out: growth inhibition, ABT-199 together with AS
  inhibition at 0.037 µM: 100%
[3]; average of 3/3 cell lines
  average inhibition over the Bliss predictions, ABT-199 plus ART-838: 21%
  average inhibition over the Bliss predictions, ABT-199 plus AS: 17%

## CC1(C)CCC(c2ccc(Cl)cc2)=C(CN2CCN(c3ccc(C(=O)NS(=O)(=O)c4ccc(N[C@H](CCN5CCOCC5)CSc5ccccc5)c(S(=O)(=O)C(F)(F)F)c4)cc3)CC2)C1 [ABT-263, navitoclax]
[3]
  synergy with either AS or ART-838: Particularly strong synergy

## Cn1cc(-c2ccc3nnc(C(F)(F)c4ccc5ncccc5c4)n3n2)cn1 [JNJ-38877605]
[3]
  No. Cell Lines synergistically inhibited by drug 1 combined with AS and/or ART-838: 2/3

## CN(C)CC[C@H](CSc1ccccc1)Nc1ccc(S(=O)(=O)NC(=O)c2ccc(N3CCN(Cc4ccccc4-c4ccc(Cl)cc4)CC3)cc2)cc1[N+](=O)[O-] [ABT-737]
[3]
  No. Cell Lines synergistically inhibited by drug 1 combined with AS and/or ART-838: 3/3
  synergy with either AS or ART-838: Particularly strong synergy

## Cc1ccc(S(=O)(=O)OCC(=O)Nc2ccc(C(=O)O)c(O)c2)cc1 [S31-201]
[3]
  No. Cell Lines synergistically inhibited by drug 1 combined with AS and/or ART-838: 2/3

## COc1cccc2c1C(=O)c1c(O)c3c(c(O)c1C2=O)C[C@@](O)(C(=O)CO)C[C@@H]3O[C@H]1C[C@H](N)[C@H](O)[C@H](C)O1 [DOX, doxorubicin]
[1]
  mitochondrial superoxide generation, drug alone: induced mitochondrial superoxide generation
  effect of the drug on ART-838-induced superoxide: further enhanced
  effect of the drug on AS-induced superoxide: further enhanced

## O=S(=O)(NCCNC/C=C/c1ccc(Br)cc1)c1cccc2cnccc12 [H-89]
[3]
  No. Cell Lines synergistically inhibited by drug 1 combined with AS and/or ART-838: 2/3

## Nc1ccn([C@@H]2O[C@H](CO)[C@@H](O)[C@@H]2O)c(=O)n1 [ARA, cytarabine]
[4]
  tumor growth inhibition, ARA plus ART-838 versus either drug alone: inhibited tumor growth substantially more than did either drug alone
[1]
  mitochondrial superoxide generation, drug alone: induced mitochondrial superoxide generation
  effect of the drug on AS-induced superoxide: further enhanced
MOLM14 cells [5]
  pIC50: 6.54

## COc1ccc(COc2ccc(Cc3cnc(N)nc3N)cc2OC)cc1 [GW-2580]
[3]
  No. Cell Lines synergistically inhibited by drug 1 combined with AS and/or ART-838: 2/3

## Nc1ncnc2c1c(-c1cccc(OCc3ccccc3)c1)cn2C1CC(CN2CCCC2)C1 (stereo not shown) [NVP-ADW742]
[3]
  No. Cell Lines synergistically inhibited by drug 1 combined with AS and/or ART-838: 2/3

## COc1cc([C@@H]2c3cc4c(cc3[C@@H](O[C@@H]3O[C@@H]5CO[C@@H](C)O[C@H]5[C@H](O)[C@H]3O)[C@H]3COC(=O)[C@H]23)OCO4)cc(OC)c1O [ETO, etoposide]
[1]
  mitochondrial superoxide generation, drug alone: induced mitochondrial superoxide generation
  effect of the drug on ART-838-induced superoxide: further enhanced
  effect of the drug on AS-induced superoxide: further enhanced
MOLM14 cells [5]
  pIC50: 6.62

## C[C@@H](Oc1cc(-c2cnn(C3CCNCC3)c2)cnc1N)c1c(Cl)ccc(F)c1Cl [Crizotinib]
[3]
  No. Cell Lines synergistically inhibited by drug 1 combined with AS and/or ART-838: 2/3**

## CCc1cc(Nc2nccc(-c3c(-c4ccc(OC)c(C(=O)Nc5c(F)cccc5F)c4)nc4ccccn34)n2)c(OC)cc1N1CCC(N2CCN(S(C)(=O)=O)CC2)CC1 [GSK-1904529A]
[3]
  No. Cell Lines synergistically inhibited by drug 1 combined with AS and/or ART-838: 3/3

## C[C@]12O[C@H](C[C@]1(O)CO)n1c3ccccc3c3c4c(c5c6ccccc6n2c5c31)CNC4=O [LES, lestaurtinib]
MOLM14 cells [6]
  combination index (CI) of the drug combined with AS: 1.5

## CNC(=O)c1cc(Oc2ccc(NC(=O)Nc3ccc(Cl)c(C(F)(F)F)c3)cc2)ccn1 [SOR, sorafenib]
[1]
  effect of the drug on AS-induced superoxide: reduced
[7]
  leukemia xenograft growth rates, drug combined with ART838: reduced leukemia xenograft growth rates
  survival, drug combined with ART838: prolonged survivals
MOLM14 AML xenografts
  tumor growth inhibition, AS plus SOR versus either drug alone: inhibited tumor growth substantially more than did either drug alone
MCL1
  MCL1 protein levels: large reductions; also recorded: downregulates
